From US20240382629A1, “HETEROBIVALENT AND HOMOBIVALENT AGENTS TARGETING FIBROBLAST ACTIVATION PROTEIN ALPHA AND/OR PROSTATE-SPECIFIC MEMBRANE ANTIGEN” (The Johns Hopkins University, priority 2021, published 2024) come the findings set out here.

Read-outs that look alike come from different tables or passages of the source. Bounds are passed on as bounds.

Type in all cases: biochemical
The target of one assay is FAP (Homo sapiens (Human), UniProt Q12884). Description: FAP inhibition assay (recombinant enzyme, Z-Gly-Pro-AMC substrate). Conditions: for Ki: read-out: FAP Ki. The procedure:
(§1) PSMA binding affinities of the compounds were determined using a competitive inhibition assay as previously reported. […] FAP, prolyl endopeptidase (PREP), and […] (DPPIV) inhibition assays: Recombinant enzymes (FAP, PREP, DPPIV) were purchased from R&D Systems (Minneapolis, MN). […] Z-Gly-Pro-AMC was used as a substrate for FAP and PREP. H-Gly-Pro-AMC was used as a substrate for DPPIV. The recombinant enzyme (0.4 μg/mL) was incubated with varying amounts of the test articles in the presence of the designated substrate (80 μM) for 10 min at room temperature. Fluorescence intensity was measured with 380 nm excitation and 460 nm emission using the Cytation 5 Cell Imaging Multi-Mode Reader (BioTek, Winooski, VT). IC50 and Ki values were obtained using a sigmoidal dose-response function.

The next assay deals with PSMA (Homo sapiens (Human), UniProt Q04609). The experiment in a line: PSMA competitive inhibition assay (NAAG substrate, LNCaP cell lysate). The note with it: Table 4. The procedure: as §1
PSMA, sequence (Q04609 whole entry): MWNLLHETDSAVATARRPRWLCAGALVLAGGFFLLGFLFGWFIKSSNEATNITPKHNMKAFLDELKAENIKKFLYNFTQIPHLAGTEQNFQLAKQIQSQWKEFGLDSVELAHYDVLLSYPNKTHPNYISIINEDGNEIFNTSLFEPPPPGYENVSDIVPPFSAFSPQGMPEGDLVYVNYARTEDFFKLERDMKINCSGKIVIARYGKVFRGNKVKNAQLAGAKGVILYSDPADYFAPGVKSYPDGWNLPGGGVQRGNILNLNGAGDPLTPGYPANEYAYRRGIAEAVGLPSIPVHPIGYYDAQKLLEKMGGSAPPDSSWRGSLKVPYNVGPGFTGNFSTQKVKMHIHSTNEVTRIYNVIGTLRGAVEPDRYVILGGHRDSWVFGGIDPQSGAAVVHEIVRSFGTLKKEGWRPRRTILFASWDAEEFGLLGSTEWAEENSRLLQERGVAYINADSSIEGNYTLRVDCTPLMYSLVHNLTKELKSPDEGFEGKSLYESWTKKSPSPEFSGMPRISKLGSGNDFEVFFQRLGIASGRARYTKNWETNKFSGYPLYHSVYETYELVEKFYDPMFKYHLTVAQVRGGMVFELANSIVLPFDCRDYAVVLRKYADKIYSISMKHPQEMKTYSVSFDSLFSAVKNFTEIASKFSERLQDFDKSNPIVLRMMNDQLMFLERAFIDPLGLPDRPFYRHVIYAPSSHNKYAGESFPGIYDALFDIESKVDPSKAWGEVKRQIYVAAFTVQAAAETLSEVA
In another assay the target is DPPIV (Homo sapiens (Human), UniProt P27487). Description: DPPIV inhibition assay (recombinant enzyme, H-Gly-Pro-AMC substrate). Conditions: read-out: DPPIV IC50. The procedure:
as §1

In a further assay the target is PREP (Homo sapiens (Human), UniProt P48147). Description: PREP inhibition assay (recombinant enzyme, Z-Gly-Pro-AMC substrate). The procedure: as §1
PREP, sequence (P48147 whole entry): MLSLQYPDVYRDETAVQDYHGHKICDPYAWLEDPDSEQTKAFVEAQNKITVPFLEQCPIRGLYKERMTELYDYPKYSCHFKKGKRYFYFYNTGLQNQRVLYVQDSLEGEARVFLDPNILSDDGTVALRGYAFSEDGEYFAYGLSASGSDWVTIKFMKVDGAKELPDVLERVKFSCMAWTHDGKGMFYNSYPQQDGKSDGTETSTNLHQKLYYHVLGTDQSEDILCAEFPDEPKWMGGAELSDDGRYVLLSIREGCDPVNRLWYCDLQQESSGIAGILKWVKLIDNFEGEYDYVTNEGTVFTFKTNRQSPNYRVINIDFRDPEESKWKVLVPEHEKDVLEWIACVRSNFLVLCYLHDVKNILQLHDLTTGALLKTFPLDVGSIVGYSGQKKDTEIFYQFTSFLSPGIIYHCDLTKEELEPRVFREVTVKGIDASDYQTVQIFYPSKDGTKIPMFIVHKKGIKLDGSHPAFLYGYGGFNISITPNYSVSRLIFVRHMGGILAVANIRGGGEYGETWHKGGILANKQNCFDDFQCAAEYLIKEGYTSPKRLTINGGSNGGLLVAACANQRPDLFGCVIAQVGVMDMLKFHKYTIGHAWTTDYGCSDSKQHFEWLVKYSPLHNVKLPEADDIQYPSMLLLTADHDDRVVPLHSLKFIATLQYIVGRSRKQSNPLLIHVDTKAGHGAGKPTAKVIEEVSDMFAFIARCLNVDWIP

DPPIV, sequence (P27487 whole entry): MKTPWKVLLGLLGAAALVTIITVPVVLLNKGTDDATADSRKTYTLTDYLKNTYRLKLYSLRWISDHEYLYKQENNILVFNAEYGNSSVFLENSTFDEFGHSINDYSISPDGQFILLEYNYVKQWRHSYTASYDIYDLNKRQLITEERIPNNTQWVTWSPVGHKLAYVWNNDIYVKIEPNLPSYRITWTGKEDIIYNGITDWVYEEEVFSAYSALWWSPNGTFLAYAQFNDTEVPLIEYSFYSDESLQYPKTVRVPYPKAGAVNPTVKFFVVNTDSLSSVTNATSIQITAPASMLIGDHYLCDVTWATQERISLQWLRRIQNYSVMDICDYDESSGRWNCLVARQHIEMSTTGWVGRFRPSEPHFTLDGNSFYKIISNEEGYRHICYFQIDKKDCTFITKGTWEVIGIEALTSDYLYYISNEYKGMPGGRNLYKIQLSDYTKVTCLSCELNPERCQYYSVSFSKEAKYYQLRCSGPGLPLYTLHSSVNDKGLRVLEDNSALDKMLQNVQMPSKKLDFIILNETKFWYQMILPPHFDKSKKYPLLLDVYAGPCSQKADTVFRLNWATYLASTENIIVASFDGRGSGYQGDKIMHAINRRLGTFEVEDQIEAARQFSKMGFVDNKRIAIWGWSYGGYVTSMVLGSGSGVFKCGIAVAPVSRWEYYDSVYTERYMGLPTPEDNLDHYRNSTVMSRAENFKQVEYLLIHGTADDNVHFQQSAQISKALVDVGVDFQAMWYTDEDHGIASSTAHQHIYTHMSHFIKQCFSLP
FAP, sequence (Q12884 whole entry): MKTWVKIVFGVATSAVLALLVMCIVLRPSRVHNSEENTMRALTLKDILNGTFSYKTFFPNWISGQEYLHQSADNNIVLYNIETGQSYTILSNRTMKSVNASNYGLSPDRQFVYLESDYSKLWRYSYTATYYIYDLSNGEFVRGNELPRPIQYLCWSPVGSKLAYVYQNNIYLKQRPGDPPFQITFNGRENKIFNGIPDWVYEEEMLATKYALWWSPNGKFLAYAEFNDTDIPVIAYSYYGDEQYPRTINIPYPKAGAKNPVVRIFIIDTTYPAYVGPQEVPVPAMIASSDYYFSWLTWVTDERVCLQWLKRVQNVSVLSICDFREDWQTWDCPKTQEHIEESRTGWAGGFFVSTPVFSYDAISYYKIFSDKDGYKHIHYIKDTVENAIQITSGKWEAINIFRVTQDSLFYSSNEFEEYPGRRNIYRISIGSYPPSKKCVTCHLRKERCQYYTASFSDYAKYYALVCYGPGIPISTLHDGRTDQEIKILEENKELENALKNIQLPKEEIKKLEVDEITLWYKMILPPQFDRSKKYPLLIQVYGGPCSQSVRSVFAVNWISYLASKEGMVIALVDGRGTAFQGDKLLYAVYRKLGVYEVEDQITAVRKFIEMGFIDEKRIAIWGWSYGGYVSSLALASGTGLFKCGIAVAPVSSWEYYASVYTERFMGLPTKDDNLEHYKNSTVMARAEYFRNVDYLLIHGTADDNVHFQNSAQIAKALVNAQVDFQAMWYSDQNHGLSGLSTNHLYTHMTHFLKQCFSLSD

For orientation: IC50 means the concentration that gives 50% inhibition. By Ki is commonly meant a dissociation constant, usually derived from enzyme kinetics or from competition with a known ligand. As to `N#CC1CCCN1C(=O)CNC(=O)c1ccnc2ccc(OCCCNC(=O)CCc3cn(CC[C@H](NC(=O)CN4CCN(CC(=O)O)CCN(CC(=O)O)CC4)C(=O)NCCCCCC(=O)NCCCC[C@H](NC(=O)N[C@@H](CC(=O)O)C(=O)O)C(=O)O)nn3)cc12` (some centres unmarked) [SRI-07-42], the concentration for half-maximal inhibition (IC50) was 0.00223 µM at FAP (Table 4), 4.71 µM on PSMA, 9.91 µM at DPPIV (Table 4) and 11.2 µM at PREP (Table 4). Also, the values for the inhibition constant Ki on FAP (Table 4) and on PSMA (read-out: PSMA Ki) were 0.45 nM and 0.94 µM, respectively.

Take `CC1(C)C(/C=C/C2=C(Oc3ccc(S(=O)(=O)O)cc3)C(=C/C=C3/N(CCCCS(=O)(=O)O)c4ccc(S(=O)(=O)O)cc4C3(C)C)/CCC2)=[N+](CCCCCC(=O)N[C@@H](CCCCn2cc(CCC(=O)NCCCOc3ccc4nccc(C(=O)NCC(=O)N5CCC[C@H]5C#N)c4c3)nn2)C(=O)NCCNC(=O)CCC(C(=O)O)N2CCN(CC(=O)O)CCN(CC(=O)O)CCN(CC(=O)O)CC2)c2ccc(S(=O)(=O)[O-])cc21` (some centres unmarked) [SB-FAP-10]: the IC50 turned out to be 0.00343 µM on FAP (Table 4), 11.9 µM at DPPIV (Table 4) and 2.53 µM on PREP (Table 4). The inhibition constant Ki at FAP (Table 4) worked out at 0.69 nM.

Take `N#CC1CCCN1C(=O)CNC(=O)c1ccnc2ccc(OCCCNC(=O)CCc3cn(CCCC[C@H](NC(=O)CN4CCN(CC(=O)O)CCN(CC(=O)O)CC4)C(=O)NCCCOc4ccc5nccc(C(=O)NCC(=O)N6CCC[C@H]6C#N)c5c4)nn3)cc12` (some centres unmarked) [SB-FAP-09]: the half-maximal inhibitory concentration (IC50) came to 0.00048 µM on FAP (Table 3), 2.05 µM at DPPIV (Table 3) and 0.63 µM on PREP (Table 3). In addition, at FAP (Table 3), the inhibition constant (Ki) was determined as 0.1 nM.

`N#C[C@@H]1CCCN1C(=O)CNC(=O)c1ccnc2cc(F)ccc12` [JHU1220501]: the half-inhibitory concentration (IC50) on FAP (Table 3) is 0.00216 µM; at DPPIV (Table 3), > 20 µM; on PREP (Table 3), 0.522 µM. The Ki on FAP (Table 3) turned out to be 0.433 nM.

With `N#C[C@@H]1CCCN1C(=O)CNC(=O)c1ccnc2ccc(OCCCN(Cc3ccc(I)cc3)C(=O)CN3CCN(CC(=O)O)CCN(CC(=O)O)CCN(CC(=O)O)CC3)cc12` [JHU1220627], the values for the IC50 at FAP (Table 3), on DPPIV (Table 3) and at PREP (Table 3) were 0.00141 µM, 836 µM and > 2000 µM, respectively. Further, at FAP (Table 3), the inhibitory constant (Ki) turned out to be 0.28 nM.

As to `N#C[C@@H]1CCCN1C(=O)CNC(=O)c1ccnc2c(F)cccc12` [JHU1220502], the half-maximal inhibitory concentration (IC50) is 0.00504 µM at FAP (Table 3), > 20 µM at DPPIV (Table 3) and 0.0845 µM on PREP (Table 3). Besides, at FAP (Table 3), the Ki came to 1.01 nM.

Consider `N#C[C@@H]1CC(F)(F)CN1C(=O)CNC(=O)c1ccnc2ccc(F)cc12` [JHU1220466], for which the IC50 at FAP (Table 3) was found to be 0.00031 µM; at DPPIV (Table 3), 3.5 µM; on PREP (Table 3), 0.047 µM. In addition, at FAP (Table 3), the Ki was 0.062 nM.

Take `N#C[C@@H]1CCCN1C(=O)CNC(=O)c1ccnc2cccc(F)c12` [JHU1219438]: the IC50 on FAP (Table 3) was 0.000912 µM; on DPPIV (Table 3), > 20 µM; on PREP (Table 3), 0.0958 µM. For the same compound, the Ki at FAP (Table 3) was 0.182 nM.

With `N#C[C@@H]1CCCN1C(=O)CNC(=O)c1ccnc2ccc(OCCCNC(=O)CCOCCOCCOCCOCCNC(=O)[C@H](CCCCNC(=O)c3ccc(F)nc3)NC(=O)CN3CCN(CC(=O)O)CCN(CC(=O)O)CCN(CC(=O)O)CC3)cc12` [JHU1221823], the IC50 at FAP (Table 3) was 0.00059 µM; on DPPIV (Table 3), 7.47 µM; on PREP (Table 3) it was 0.24 µM. For the same compound, the Ki at FAP (Table 3) is 0.12 nM.
